# Assay results: article PMC11308014 (ACS Omega, 2024)
# Target: T1, recombinant human dihydrofolate reductase (hDHFR) (Homo sapiens, UniProt P00374)
# T1 construct: gene DHFR; commercial recombinant enzyme (R&D, Bio-Techne)
# T1 sequence (P00374 1-187): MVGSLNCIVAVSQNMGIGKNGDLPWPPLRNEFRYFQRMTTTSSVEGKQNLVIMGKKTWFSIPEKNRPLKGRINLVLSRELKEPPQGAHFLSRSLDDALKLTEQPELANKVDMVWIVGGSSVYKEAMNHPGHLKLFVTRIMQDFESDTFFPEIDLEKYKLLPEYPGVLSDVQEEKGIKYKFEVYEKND
# Assay: NADPH oxidation, absorbance at […] nm
# Type: biochemical
row,IC50,Structure (SMILES)
1,1010 nM,"CN(Cc1cnc2nc(N)nc(N)c2n1)c1ccc(C(=O)NCCCCCCCC(=O)O)cc1 [compound 6, 6]"
2,1210 nM,"CN(Cc1cnc2nc(N)nc(N)c2n1)c1ccc(C(=O)NCCCCCC(=O)O)cc1 [compound 5, 5]"
3,10 nM,"CN(Cc1cnc2nc(N)nc(N)c2n1)c1ccc(C(=O)NCCCC(=O)O)cc1 [compound 4, 4]"
4,3030 nM,"CN(Cc1cnc2nc(N)nc(N)c2n1)c1ccc(C(=O)NCCS(=O)(=O)O)cc1 [compound 7, 7]"
